According to patent US6255327A, “Diphenyl-substituted heterocycles, processes for preparing them and their use as pharmaceutical compositions” (Boehringer Ingelheim Pharma KG, priority 1998, dated 2001):

Columns and labels:
[1] = target: "Na^+ channel site 2" binding site; test: Affinity to the "Na^+ channel site 2" binding site; settings: typically at a test concentration of 10 μM
Experimental: The testing was typically carried out at a test concentration of 10 μM.

AMPA receptor = test: Inhibition of the cainate-induced signal at the AMPA receptor, electrophysiology on neuronal cells (patch-clamp method); assay type: cell-based; settings: test concentration of 100 μM
Experimental: The testing was carried out at a test concentration of 100 μM.

neurones in mouse brains = settings: after systemic administration; cited from earlier work

Row | Structure (SMILES) | Ki [1] [nM] | AMPA Inh. [%] (inhibition of the cainate-induced signal at the AMPA receptor) (AMPA receptor) | destruction of neurones in mouse brains (in words) (neurones in mouse brains)
1 | CN(C)CCOc1ccccc1-c1nc(-c2ccccc2)nn1C [Example 23, 5-{2-[2(N,N-dimethylamino)-ethyl]oxy-phenyl}-1-methyl-3-phenyl-1,2,4-triazole] | 1400 | – | –
2 | CN(C)CCOc1ccccc1-c1ccc(-c2ccccc2)[nH]1 [Example 24, 2-{2-[2(N,N-dimethylamino)-ethyl]oxy-phenyl}-5-phenyl-pyrrole] | 460 | – | –
3 | COc1ccccc1-c1c[nH]c(-c2ccccc2)c1 [Example 13, 3-(2-methoxyphenyl)-5-phenyl-1H-pyrrole] | 1100 | – | –
4 | CN(C)CCOc1ccccc1-c1nn(-c2ccccc2)c(=O)o1 [Example 12, 5-{2-[2(N,N-dimethylamino)ethyl]oxy-phenyl}-3-phenyl-1,3,4-oxadiazol-2-one] | 990 | – | –
5 | CN(C)CCOc1ccccc1-c1nc(-c2ccccc2)c[nH]1 [Example 25, 2-{2-[2(N,N-dimethylamino)-ethyl]-oxy-phenyl}-4-phenyl-imidazole] | 1300 | – | –
6 | c1ccc(-c2ncn(-c3ccccc3)n2)cc1 [Example 1, 1,3-Diphenyl-1,2,4-triazole] | – | 56 | –
7 | CN(C)CCOc1ccccc1-c1coc(-c2ccccc2)n1 [Example 8, 4-{2-[2(N,N-dimethylamino)ethyl]oxy-phenyl}-2-phenyl-1,3-oxazole] | 4600 | 77 | –
8 | CN(C)CCOc1ccccc1-c1cnc(-c2ccccc2)o1 [Example 10, 5-{2-[2(N,N-dimethylamino)ethyl]oxy-phenyl}-2-phenyl-1,3-oxazole] | 990 | 98 | –
9 | CN(C)CCOc1ccccc1C1NC(=O)N(c2ccccc2)C1=O (stereo not shown) [Example 21, 5-{2-[2(N,N-dimethylamino)ethyl]oxy-phenyl}-3-phenyl-imidazolidin-2,4-dione] | 710 | – | –
10 | CN(C)CCOc1ccccc1-c1ncn(-c2ccccc2)n1 [Example 5, 3-{2-[2(N,N-Dimethylamino)ethyl]oxy-phenyl}-1-phenyl-1,2,4-triazole] | 700 | 76 | –
11 | CN(C)CCOc1ccccc1-n1cc(-c2ccccc2)[nH]c1=O [Example 20, 1-{2-[2(N,N-dimethylamino)ethyl]oxy-phenyl}-4-phenyl-1,3-dihydro-imidazole-2-one] | 360 | – | –
12 | COc1ccccc1-n1cnc(-c2ccccc2)n1 [Example 2, 1-(2-methoxyphenyl)-3-phenyl-1,2,4-triazole] | – | 96 | –
13 | N[C@@H](CCC(=O)O)C(=O)O [glutamate] | – | – | neurones are destroyed in mouse brains
14 | CN(C)CCOc1ccccc1N1C(=O)NC(c2ccccc2)C1=O (stereo not shown) [Example 19, 3-{2-[2(N,N-dimethylamino)ethyl]oxy-phenyl}-5-phenyl-imidazolidin-2,4-dione] | 550 | – | –
15 | CN(C)CCOc1ccccc1-c1cn(-c2ccccc2)c(=O)[nH]1 [Example 22, 4-{2-[2(N,N-dimethylamino)ethyl]oxy-phenyl}-1-phenyl-1,3-dihydro-imidazol-2-one] | 1300 | – | –
16 | CN(C)CCOc1ccccc1-c1n[nH]c(-c2ccccc2)n1 [Example 7, 3-{2-[2(N,N-Dimethylamino)ethyl]oxy-phenyl}-5-phenyl-1,2,4-triazole] | 1200 | 39 | –
17 | CN(C)CCOc1ccccc1-c1c[nH]c(-c2ccccc2)n1 [Example 9, 4-{2-[2(N,N-dimethylamino)ethyl]oxy-phenyl}-2-phenyl-imidazole] | 1800 | – | –
18 | COc1ccccc1-c1cnn(-c2ccccc2)c1 [Example 17, 4-(2-methoxyphenyl)-1-phenyl-pyrazole] | 390 | 53 | –
19 | CN(C)CCOc1ccccc1-n1cnc(-c2ccccc2)n1 [Example 3, 1-{2-[2(N,N-Dimethylamino)ethyl]oxy-phenyl}-3-phenyl-1,2,4-triazole] | 3700 | 74 | –
